What was measured:
Balb/c mice [1] = test: Survival rate of mice singly administered with high doses of carrier; type: in vivo; conditions: pDBA, single
Protocol: The survival rate of mice was investigated in the manner described below when high doses of pDBA solution were directly administered to the mice.
pDBA was dissolved in physiological saline solution to prepare pDBA solutions having different concentrations. The pDBA solutions were administered to Balb/c mice intravenously through tail veins, and their symptoms were observed. pDBAs obtained in Synthetic Examples 1-7 (all listed in Table 2) were used. […]

Balb/c mice [2] = test: Gene introduction into mice with plasmid A/pDBA complexes given intravenously through tail veins, luciferase activity in tissues; type: in vivo; conditions: for luciferase activity in the liver: plasmid/pDBA 1/7 (w/w)
Protocol: A solution of plasmid A and a solution of pDBA were prepared, respectively, at twice the desired concentration. Approximately 30 minutes prior to administration, the pDBA solution was added dropwise to the plasmid solution with stirring to prepare a plasmid/(nucleic acid carrier) complex solution. DMEM medium was used as solvent. Specifically, a 50 μg/ml plasmid solution was prepared such that a plasmid/(nucleic acid carrier) complex solution having a plasmid concentration of 25.0 μg/ml would be used as an administration sample.
Complex solutions were prepared from pDBA obtained in Example 3 and plasmid A such that the weight ratio of plasmid/pDBA was 1/7 (w/w) and were administered to Balb/c mice intravenously through tail veins. The dose of plasmid A per mouse was 12.5 μg/0.5 ml. Two days and twenty one days after administration the luciferase activity was measured in the lung, the liver and the spleen whereby gene introduction to the respective were determined.
Complex solutions were prepared from pDBA obtained in Synthetic Example 3 and plasmid A such that different weight ratios of plasmid to pDBA (plasmid/pDBA=1/0, 1/1, 1/5, 1/10, and 1/20) were realized; and they were administered to Balb/c mice intravenously through tail veins.
Two days after administration the luciferase activity found in the liver was measured whereby gene introduction to the respective mouse tissues were determined.
Complexes were prepared from five kinds of pDBA obtained in Synthetic Examples 1, 2, 3, 4, and 5 (all listed in Table 2) and plasmid A such that the weight ratio of plasmid/pDBA was 1/5 (w/w); and they were administered to mice intravenously through tail veins. Two days after administration the luciferase activity in the liver was measured.
Similarly to Example 4, Plasmid A/pDBA complex solutions that were prepared were administered to Balb/C mice (8-week old male) intravenously through tail veins. Gene expression in the liver after administration was assessed by measuring the luciferase activity. pDBA obtained in Synthetic Example 3 in Table 2 was used to prepare a complex solution such that plasmid/pDBA was equal to 1/5 (w/W), which was used in the administration described above.

HepG2 cells [3] = test: Gene introduction into HepG2 cells with plasmid A/pDBA complexes, activity of the expressed luciferase; type: cell-based; conditions: plasmid/pDBA weight ratios 1/1 to 1/20 (w/w), FIG. 3
Protocol: A solution of a plasmid encoding the luciferase gene (about 5.25 kb: PicaGene control vector into which the luciferase gene was previously introduced (Toyo Ink Mfg. Co. Ltd.) that will be referred to as “plasmid A” hereinafter) and a solution of a nucleic acid carrier were prepared, respectively, at twice the desired concentration. Approximately 30 minutes prior to administration, the nucleic acid carrier solution was added dropwise to the plasmid solution with stirring to prepare a plasmid/(nucleic acid carrier) complex solution. DMEM medium (Sigma-Aldrich Corporation) was used as solvent. Specifically, a 25 μg/ml plasmid solution was prepared such that a plasmid/(nucleic acid carrier) complex solution having a plasmid concentration of 12.5 μg/ml would be used as an administration sample.
HepG2 cells were inoculated onto a 12-well multi-well plate (Coaster Inc.) at 1×10^5 cells/well one day prior to testing. […] The luciferase activity of the supernatant was measured on a Luciferase Assay System (Toyo Inc. Mfg. Co. Ltd.) using a luminometer (Lumit LB9501 available from Berthold Pty Ltd.). The protein concentration of the centrifuged supernatant was measured in a Protein Assay Kit (Bio-Rad Laboratories, Inc.) using a microplate reader (Rainbow Thermo available from Tecan U.S., Inc.). […]

[4] = test system: guinea pigs (Hartley line); conditions: guinea pig, in vivo
HepG2 cells [5] = test: Introduction of FITC-labeled oligonucleotide into HepG2 cells using pDBA, flow cytometer; type: cell-based; conditions: HepG2, 4 hours, FIG. 11 and 12
Protocol: An oligonucleotide labeled with FITC (20 mer, Pharmacia Corporation) was used to assess the efficiency of introduction into cells for the. complexes of the oligonucleotide with various pDBAs.
HepG2 cells were inoculated onto a 12-well petri dish at 1×10^5 cells/well and cultured for 24 hours. The FITC-labeled oligonucleotide was used, and pDBAs obtained in Synthetic Examples 3 and 5 were used as the nucleic acid carriers. Complexes were prepared from these three kinds (pDBAs and the FITC-labeled oligonucleotide) such that the ratios of oligonucleotide/pDBA were 1/1, 1/5, and 1/10 (w/w). The complex solutions were added to the HepG2 cells; and after culturing for 4 hours, the cells were washed with PBS(−) twice. After removal of PBS(−), the cells were separated from the dish using a cell dissociation solution (SIGMA-Aldrich Corporation) and the cell suspensions were subjected to measurement with a flow cytometer (FACS Calibur available from Becton Dickinson). The results are shown in FIG. 11 (oligonucleotide/pDBA=1/5(w/w)), where M1 represents the results from control experiment and M2 represents the results from the experiment using the FITC-labeled oligonucleotide).

Poly(DL-2,4-diaminobutyric acid) Acetate [Synthetic Example 3]
Survival rate (survival number/case number) (Balb/c mice [1]; dose 3.1 mg/kg iv, listed as 49, 3.1 mg/kg): 3/3 | Survival rate (survival number/case number) (Balb/c mice [1]; dose 6.3 mg/kg iv, listed as 49, 6.3 mg/kg): 3/3 | luciferase activity in the liver (Balb/c mice [2]; 21 days after iv administration, FIG. 5B): maintained even 21 days after administration | duration of gene expression in the liver after a single administration (Balb/c mice [2]; Balb/C mice, iv tail vein, plasmid A, plasmid/pDBA 1/5 (w/W), FIG. 8): ≥ 7 months | gene expression (luciferase activity in the liver) (Balb/c mice [2]; two days after iv administration, plasmid/pDBA 1/0, 1/1, 1/5, 1/10, 1/20, FIG. 6): As the quantity of pDBA relative to the plasmid increases, the gene expression has the tendency to increase | luciferase activity in the liver (Balb/c mice [2]; two days after iv administration, compared with plasmid only, FIG. 5A): markedly high luciferase activity | gene expression (activity of the expressed luciferase) (HepG2 cells [3]): as the quantity of pDBA relative to plasmid increases, so does the gene expression | immunogenicity [4]: very low

Poly(DL-2,4-diaminobutyric acid) Acetate [Synthetic Example 6]
Survival rate (survival number/case number) (Balb/c mice [1]; dose 3.1 mg/kg iv, listed as 278, 3.1 mg/kg): 3/3 | Survival rate (survival number/case number) (Balb/c mice [1]; dose 6.3 mg/kg iv, listed as 278, 6.3 mg/kg): 0/3

Poly(DL-2,4-diaminobutyric acid) Acetate [Synthetic Example 4]
Survival rate (survival number/case number) (Balb/c mice [1]; dose 3.1 mg/kg iv, listed as 62, 3.1 mg/kg): 3/3 | Survival rate (survival number/case number) (Balb/c mice [1]; dose 6.3 mg/kg iv, listed as 62, 6.3 mg/kg): 2/3

Poly(DL-2,4-diaminobutyric acid) Acetate [Synthetic Example 7]
Survival rate (survival number/case number) (Balb/c mice [1]; dose 3.1 mg/kg iv, listed as 348, 3.1 mg/kg): 1/3 | Survival rate (survival number/case number) (Balb/c mice [1]; dose 6.3 mg/kg iv, listed as 348, 6.3 mg/kg): 0/3

Poly(DL-2,4-diaminobutyric acid) Acetate [Synthetic Example 1]
Survival rate (survival number/case number) (Balb/c mice [1]; dose 1.6 mg/kg iv): 3/3 | Survival rate (survival number/case number) (Balb/c mice [1]; dose 3.1 mg/kg iv, listed as 12, 3.1 mg/kg): 3/3 | Survival rate (survival number/case number) (Balb/c mice [1]; dose 6.3 mg/kg iv, listed as 12, 6.3 mg/kg): 3/3 | Survival rate (survival number/case number) (Balb/c mice [1]; dose 12.5 mg/kg iv): 0/3 | cellular introduction / incorporation of the FITC-labeled oligonucleotide (HepG2 cells [5]): little incorporation of oligonucleotide

Poly(DL-2,4-diaminobutyric acid) Acetate [Synthetic Example 2]
Survival rate (survival number/case number) (Balb/c mice [1]; dose 3.1 mg/kg iv, listed as 26, 3.1 mg/kg): 3/3 | Survival rate (survival number/case number) (Balb/c mice [1]; dose 6.3 mg/kg iv, listed as 26, 6.3 mg/kg): 3/3

Poly(DL-2,4-diaminobutyric acid) Acetate [Synthetic Example 5]
Survival rate (survival number/case number) (Balb/c mice [1]; dose 3.1 mg/kg iv, listed as 170, 3.1 mg/kg): 3/3 | Survival rate (survival number/case number) (Balb/c mice [1]; dose 6.3 mg/kg iv, listed as 170, 6.3 mg/kg): 0/3

Reference: patent US20030148929A1, “Nucleic acid carriers and pharmaceutical compositions for gene therapy” (Hisamitsu Pharmaceutical Co., Inc., priority 1998, published 2003)
